How the values were obtained:
Test in all cases: combination Emax (second highest fraction inhibited in the dose matrix, 72 h); higher = more inhibition; extreme values may be limits of the assay
[1] = test system: MDST8 (Colorectal Carcinoma)
How it was run: (§1)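 Cell lines grown in DMEM/F12 or RPMI with 10% FBS were plated in 1536-well plates and held 24 hours at 37°C, 5% CO2 before 72 hours of exposure to two-drug dose matrices, with DMSO typically at 0.2%. CellTiter-Glo 2.0 luminescence gave viability, which was converted to inhibition. Vehicle wells were set to 0 and blank wells to 1. Combination Emax is the second-highest inhibition in the matrix, and Bliss excess is the observed combination effect minus the expected EA + EB − EA·EB, where EA and EB are the single-agent effects.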

[2] = test system: TT (Thyroid Gland Carcinoma)
How it was run: as §1

PA-1 (Ovarian Carcinoma) = test system: PA-1 (Ovarian Carcinoma)
How it was run: as §1

[3] = test system: NCI-H64 (Small Cell Lung Carcinoma)
How it was run: as §1

[4] = test system: CAPAN-2 (Pancreatic Carcinoma)
How it was run: as §1

[5] = test system: CAL-29 (Bladder Carcinoma)
How it was run: as §1

Compound	combination Emax [1]	combination Emax [2]	combination Emax (PA-1 (Ovarian Carcinoma))	combination Emax [3]	combination Emax [4]	combination Emax [5]
NC1(C(=O)N[C@@H](CCO)c2ccc(Cl)cc2)CCN(c2ncnc3[nH]ccc23)CC1 [Capivasertib] + CC(=O)c1c(C)c2cnc(Nc3ccc(N4CCNCC4)cn3)nc2n(C2CCCC2)c1=O [Palbociclib] (first compound max 10 µM, 7x7, partner max 10 µM)	0.656	0.447	0.909	0.332	0.242	0.479
NC1(C(=O)N[C@@H](CCO)c2ccc(Cl)cc2)CCN(c2ncnc3[nH]ccc23)CC1 [Capivasertib] + CC(C)n1c(=O)n(C)c2cnc3cc(F)c(-c4ccc(OCCCN5CCCCC5)nc4)cc3c21 [AZD1390] (first compound max 10 µM, 7x7, partner max 0.3 µM)	0.363	0.425	0.753	0.251	0.222	0.337
NC1(C(=O)N[C@@H](CCO)c2ccc(Cl)cc2)CCN(c2ncnc3[nH]ccc23)CC1 [Capivasertib] + CCN(CCO)CCCOc1ccc2c(Nc3cc(CC(=O)Nc4cccc(F)c4)[nH]n3)ncnc2c1 [AZD2811] (first compound max 10 µM, 7x7, partner max 1 µM)	0.511	0.544	0.918	0.668	0.219	0.452
NC1(C(=O)N[C@@H](CCO)c2ccc(Cl)cc2)CCN(c2ncnc3[nH]ccc23)CC1 [Capivasertib] + COc1nnc2ccc(N3CCC(c4ccc(OCCN5CCN(C)C(=O)[C@H]5C)cc4)CC3)nn12 [AZD5153] (first compound max 10 µM, 7x7, partner max 1 µM)	0.733	0.695	0.998	0.548	0.33	0.723
NC1(C(=O)N[C@@H](CCO)c2ccc(Cl)cc2)CCN(c2ncnc3[nH]ccc23)CC1 [Capivasertib] + C[C@@H]1COCCN1C2=NC(=NC(=C2)C3(CC3)[S@](=N)(=O)C)C4=C5C=CNC5=NC=C4 [AZD6738] (first compound max 10 µM, 7x7, partner max 10 µM)	0.765	0.484	0.964	0.861	0.219	0.716
NC1(C(=O)N[C@@H](CCO)c2ccc(Cl)cc2)CCN(c2ncnc3[nH]ccc23)CC1 [Capivasertib] + Cn1cnc2c(F)c(Nc3ccc(Br)cc3Cl)c(C(=O)NOCCO)cc21 [Selumetinib] (first compound max 10 µM, 7x7, partner max 10 µM)	0.757	0.587	0.884	0.321	0.504	0.66
Cc1nc(Nc2ncc(C(=O)Nc3c(C)cccc3Cl)s2)cc(N2CCN(CCO)CC2)n1 [Dasatinib] + CC(=O)Nc1cccc(-n2c(=O)n(C3CC3)c(=O)c3c(Nc4ccc(I)cc4F)n(C)c(=O)c(C)c32)c1 [Trametinib] (first compound max 2 µM, 7x7, partner max 1 µM)	0.781	0.441	0.936	0.185	0.892	0.625
COc1cccc2c1C(=O)c1c(O)c3c(c(O)c1C2=O)C[C@@](O)(C(=O)CO)C[C@@H]3O[C@H]1C[C@H](N)[C@H](O)[C@H](C)O1 [Doxorubicin] + Cc1cc2ncnn2cc1Nc1ncc2c(n1)n(C1CCOCC1)c(=O)n2C [AZD7648] (first compound max 1 µM, 7x7, partner max 10 µM)	0.965	0.604	0.892	0.606	0.197	0.735
COc1cc2ncnc(Nc3ccc(F)c(Cl)c3)c2cc1OCCCN1CCOCC1 [Gefitinib] + CC(C)n1c(=O)n(C)c2cnc3cc(F)c(-c4ccc(OCCCN5CCCCC5)nc4)cc3c21 [AZD1390] (first compound max 10 µM, 7x7, partner max 0.3 µM)	0.0181	0.118	0.351	0.152	0.148	0.228
CS(=O)(=O)CCNCc1ccc(-c2ccc3ncnc(Nc4ccc(OCc5cccc(F)c5)c(Cl)c4)c3c2)o1 [Lapatinib] + C[C@@H](Oc1cc(-c2cnn(C3CCNCC3)c2)cnc1N)c1c(Cl)ccc(F)c1Cl [Crizotinib] (first compound max 10 µM, 7x7, partner max 10 µM)	0.738	0.409	1	0.823	0.741	0.952
CC(=O)c1c(C)c2cnc(Nc3ccc(N4CCNCC4)cn3)nc2n(C2CCCC2)c1=O [Palbociclib] + CC1(C)CCC(CN2CCN(c3ccc(C(=O)NS(=O)(=O)c4ccc(NCC5CCOCC5)c([N+](=O)[O-])c4)c(Oc4cnc5[nH]ccc5c4)c3)CC2)=C(c2ccc(Cl)cc2)C1 [Venetoclax] (first compound max 10 µM, 7x7, partner max 1 µM)	0.238	0.295	0.779	0.17	0.0393	0.0999
CC(=O)c1c(C)c2cnc(Nc3ccc(N4CCNCC4)cn3)nc2n(C2CCCC2)c1=O [Palbociclib] + Cc1c2c(nn1C)CSCc1cc(n(C)n1)CSc1cc(c3ccccc3c1)OCCCc1c(C(=O)O)n(C)c3c-2c(Cl)ccc13 [AZD5991] (first compound max 10 µM, 7x7, partner max 1 µM)	0.223	0.419	0.872	0.213	0.139	0.175
CC(=O)c1c(C)c2cnc(Nc3ccc(N4CCNCC4)cn3)nc2n(C2CCCC2)c1=O [Palbociclib] + Cn1cnc2c(F)c(Nc3ccc(Br)cc3Cl)c(C(=O)NOCCO)cc21 [Selumetinib] (first compound max 10 µM, 7x7, partner max 10 µM)	0.671	0.349	0.827	0.19	0.356	0.301
COc1cccc(OCCCN)c1-c1cc(Nc2cnc(C#N)cn2)n[nH]1 [Prexasertib] + C=CCn1c(=O)c2cnc(Nc3ccc(N4CCN(C)CC4)cc3)nc2n1-c1cccc(C(C)(C)O)n1 [AZD1775] (first compound max 1 µM, partner max 1 µM)	0.954	0.759	0.851	0.925	0.569	0.876
COc1cccc(OCCCN)c1-c1cc(Nc2cnc(C#N)cn2)n[nH]1 [Prexasertib] + CCc1c2c(nc3ccc(O)cc13)-c1cc3c(c(=O)n1C2)COC(=O)[C@]3(O)CC [SN-38] (first compound max 1 µM, 7x7, partner max 0.3 µM)	0.94	0.916	0.91	0.95	0.495	0.98
COc1cccc(OCCCN)c1-c1cc(Nc2cnc(C#N)cn2)n[nH]1 [Prexasertib] + CN(C)CCCOc1ccc(-c2ccc3ncc4c(c3c2)n(C2CCOCC2)c(=O)n4C)cn1 [AZD0156] (first compound max 1 µM, 7x7, partner max 1 µM)	0.957	0.676	0.725	0.787	0.592	0.836
COc1cccc(OCCCN)c1-c1cc(Nc2cnc(C#N)cn2)n[nH]1 [Prexasertib] + C[C@@H]1COCCN1C2=NC(=NC(=C2)C3(CC3)[S@](=N)(=O)C)C4=C5C=CNC5=NC=C4 [AZD6738] (first compound max 1 µM, 7x7, partner max 10 µM)	0.943	0.662	0.778	0.835	0.513	0.839
COc1cccc(OCCCN)c1-c1cc(Nc2cnc(C#N)cn2)n[nH]1 [Prexasertib] + Cc1cc2ncnn2cc1Nc1ncc2c(n1)n(C1CCOCC1)c(=O)n2C [AZD7648] (first compound max 1 µM, 7x7, partner max 10 µM)	0.943	0.611	0.734	0.846	0.593	0.79
COc1cccc(OCCCN)c1-c1cc(Nc2cnc(C#N)cn2)n[nH]1 [Prexasertib] + O=C(c1cc(Cc2n[nH]c(=O)c3ccccc23)ccc1F)N1CCN(C(=O)C2CC2)CC1 [Olaparib] (first compound max 1 µM, 7x7, partner max 10 µM)	0.937	0.59	0.706	0.835	0.337	0.714

Source: the supplement of paper PMC11061612
